The values that follow come from patent US20260053171A1, “METHANOGEN INHIBITORS” (AGRIZERONZ LIMITED PARTNERSHIP, priority 2022, published 2026).

This assay deals with methane production in rumen fluid. Briefly: Rumen in vitro (RIV) assay, methane production from rumen fluid incubations. The class given is cell-based, cattle. The following applies: for inhibition at 10 µM / inhibition at 50 µM / inhibition at 2 µM: Bos taurus, read-out: RIV % methane reduction +/− SD. An outline of the steps: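 Rumen fluid from two fistulated cattle diluted 12 ml in 48 ml buffer with ryegrass substrate, incubated in sealed bottles at 39° C for 24-48 h in duplicate. Inhibitors added in DMF (stocks 1000-fold above highest assay level); total gas, methane and H2 measured automatically; 30 μM BES positive control, no-inhibitor negative control.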

SMILES strings stand for the structures.

As to `O=C(O)CCC(=O)N1N=C(c2ccc(-c3ccccc3)cc2)CC1c1ccc2c(c1)OCCO2` (stereo not drawn) [Compound 40, 4-(3-([1,1′-Biphenyl]-4-yl)-5-(2,3-dihydrobenzo[b][1,4]dioxin-6-yl)-4,5-dihydro-1H-pyrazol-1-yl)-4-oxobutanoic acid], where the note is “10 μM”, the inhibition at 10 µM came to 39.8 ± 1.3%. For the same molecule, the inhibition at 50 µM (50 μM) was determined as 89.5 ± 1.4%.

As for `O=C(O)CCC(=O)N1N=C(c2ccc(-c3ccc4[nH]ccc4c3)cc2)CC1c1ccc2nccnc2c1` (stereo not drawn) [Compound 106, 4-(3-(4-(1H-Indol-5-yl)phenyl)-5-(quinoxalin-6-yl)-4,5-dihydro-1H-pyrazol-1-yl)-4-oxobutanoic acid], the inhibition at 10 µM (10 μM) was less than 5%. Besides, the inhibition at 50 µM (50 μM) came out at 26 ± 2.5%.

On to `CC(C)(C)Oc1ccc(-c2ccc(C3=NN(C(=O)CCC(=O)O)C(c4ccc5nccnc5c4)C3)cc2)cc1` (stereo not drawn) [Compound 81, 4-(3-(4′-(tert-Butoxy)-[1,1′-biphenyl]-4-yl)-5-(quinoxalin-6-yl)-4,5-dihydro-1H-pyrazol-1-yl)-4-oxobutanoic acid], for which, for the setting “10 μM”, the inhibition at 10 µM stood at 29.8 ± 17.8%.

Turning to `O=C(O)CCC(=O)N1N=C(c2ccc(-c3ccc(OC(F)F)cc3)cc2)CC1c1ccc2nccnc2c1` (stereo not drawn) [Compound 65, 4-(3-(4′-(Difluoromethoxy)-[1,1′-biphenyl]-4-yl)-5-(quinoxalin-6-yl)-4,5-dihydro-1H-pyrazol-1-yl)-4-oxobutanoic acid], the inhibition at 2 µM (2 μM) is 26.2%. Moreover, the inhibition at 10 µM (10 μM) is 90.2%.

For `O=C1NC(=O)C(CC(=O)N2N=C(c3ccc(Cl)cc3)CC2c2ccc3nccnc3c2)S1` (stereo not drawn) [Compound 63, 5-(2-(3-(4-Chlorophenyl)-5-(quinoxalin-6-yl)-4,5-dihydro-1H-pyrazol-1-yl)-2-oxoethyl)thiazolidine-2,4-dione], under “50 μM”, the inhibition at 50 µM is 43.6 ± 2.9%.

For the molecule `O=C(O)CCCC(=O)N1N=C(c2ccc(Cl)cc2)CC1c1ccc2nccnc2c1` (stereo not drawn) [Compound 50, 5-(3-(4-Chlorophenyl)-5-(quinoxalin-6-yl)-4,5-dihydro-1H-pyrazol-1-yl)-5-oxopentanoic acid], under “50 μM”, the inhibition at 50 µM worked out at 66.4 ± 2.9%.

As to `CN(C)S(=O)(=O)NC(=O)CCC(=O)N1N=C(c2ccc(-c3ccccc3)cc2)CC1c1ccc2nccnc2c1` (stereo not drawn) [Compound 71, 4-(3-([1,1′-Biphenyl]-4-yl)-5-(quinoxalin-6-yl)-4,5-dihydro-1H-pyrazol-1-yl)-N—(N,N-dimethylsulfamoyl)-4-oxobutanamide], the inhibition at 2 µM (2 μM) is less than 5%. Under “10 μM”, the inhibition at 10 µM was 70.7%.

Take `CC(C)S(=O)(=O)NC(=O)CCC(=O)N1N=C(c2ccc(Cl)cc2)CC1c1ccc2nccnc2c1` (stereo not drawn) [Compound 58]: the inhibition at 2 µM (2 μM) is 6 ± 1.6%. Moreover, where the note is “10 μM”, the inhibition at 10 µM was found to be 80.4 ± 6.3%. Also, the inhibition at 50 µM (50 μM) amounted to 93.9 ± 4.7%.

For `O=C(O)CCC(=O)N1N=C2c3ccc(-c4ccc(OC(F)(F)F)cc4)cc3CCC2C1c1ccc2nccnc2c1` (stereo not drawn) [Compound 76, 4-Oxo-4-(3-(quinoxalin-6-yl)-7-(4-(trifluoromethoxy)phenyl)-3,3a,4,5-tetrahydro-2H-benzo[g]indazol-2-yl)butanoic acid], the inhibition at 2 µM (2 μM) turned out to be 21.1 ± 3.2%. Also, where the note is “10 μM”, the inhibition at 10 µM was found to be 77.3 ± 1.3%. Besides, the inhibition at 50 µM (50 μM) is 96.5%.

As to `O=C(O)CCC(=O)N1N=C(c2ccc(-c3ccc(OCC(F)(F)F)cc3)cc2)CC1c1ccc2nccnc2c1` (stereo not drawn) [Compound 92, 4-Oxo-4-(5-(quinoxalin-6-yl)-3-(4′-(2,2,2-trifluoroethoxy)-[1,1′-biphenyl]-4-yl)-4,5-dihydro-1H-pyrazol-1-yl)butanoic acid], the inhibition at 2 µM (2 μM) came to 32.1 ± 0.8%. Besides, the inhibition at 10 µM (10 μM) was 81.4 ± 3.1%.

Regarding `O=C(O)CCC(=O)N1N=C(c2cccc(-c3ccc(OC(F)(F)F)cc3)c2)CC1c1ccc2nccnc2c1` (stereo not drawn) [Compound 14, 4-Oxo-4-(5-(quinoxalin-6-yl)-3-(4′-(trifluoromethoxy)-[1,1′-biphenyl]-3-yl)-4,5-dihydro-1H-pyrazol-1-yl)butanoic acid], the inhibition at 2 µM (2 μM) is less than 5%. The inhibition at 10 µM (10 μM) worked out at 72.4 ± 0.8%. Further, under “50 μM”, the inhibition at 50 µM was 95.4%.

In the case of `CN(C)c1ccc(-c2ccc(C3=NN(C(=O)CCC(=O)O)C(c4ccc5nccnc5c4)C3)cc2)cc1` (stereo not drawn) [Compound 95, 4-(3-(4′-(Dimethylamino)-[1,1′-biphenyl]-4-yl)-5-(quinoxalin-6-yl)-4,5-dihydro-1H-pyrazol-1-yl)-4-oxobutanoic acid], the inhibition at 10 µM (10 μM) came to 68.3 ± 2.1%.

For the molecule `COc1ccc(C2=NN(C(=O)CCC(=O)O)C(c3ccc4nccnc4c3)C2)cc1` (stereo not drawn) [Compound 6, 4-(3-(4-Methoxyphenyl)-5-(quinoxalin-6-yl)-4,5-dihydro-1H-pyrazol-1-yl)-4-oxobutanoic acid], the inhibition at 50 µM (50 μM) is 5.6 ± 2%.

On to `CS(=O)(=O)NC(=O)CCC(=O)N1N=C(c2ccc(OC(F)(F)F)cc2)CC1c1ccc2nccnc2c1` (stereo not drawn) [Compound 116, N-(Methylsulfonyl)-4-oxo-4-(5-(quinoxalin-6-yl)-3-(4-(trifluoromethoxy)phenyl)-4,5-dihydro-1H-pyrazol-1-yl) butanamide], for which the “RIV % methane reduction +/− SD” value reads like this: (2 μM) less than 5%; (10 μM) 72.4 ± 10.6%; (50 μM) 93.9 ± 4.7%.

As for `O=C(O)CCC(=O)N1N=C(c2ccc(C3CCCCC3)cc2)CC1c1ccc2nccnc2c1` (stereo not drawn) [Compound 4, 4-(3-(4-Cyclohexylphenyl)-5-(quinoxalin-6-yl)-4,5-dihydro-1H-pyrazol-1-yl)-4-oxobutanoic acid], where the note is “10 μM”, the inhibition at 10 µM is less than 5%. For the same molecule, the inhibition at 50 µM (50 μM) came to 79.5 ± 4.4%.

`O=C(O)CCC(=O)N1N=C(c2ccc(-c3ccc(F)cc3)cc2)CC1c1ccc2nccnc2c1` (stereo not drawn) [Compound 16, 4-(3-(4′-Fluoro-[1,1′-biphenyl]-4-yl)-5-(quinoxalin-6-yl)-4,5-dihydro-1H-pyrazol-1-yl)-4-oxobutanoic acid]: the inhibition at 2 µM (2 μM) was less than 5%. Also, the inhibition at 10 µM (10 μM) was 77.5 ± 2.1%. Besides, the inhibition at 50 µM (50 μM) came out at 96.6 ± 0.2%.

As for `O=C(O)CCC(=O)N1N=C(c2ccc(-c3cccc(OC(F)(F)F)c3)cc2)CC1c1ccc2nccnc2c1` (stereo not drawn) [Compound 21, 4-Oxo-4-(5-(quinoxalin-6-yl)-3-(3′-(trifluoromethoxy)-[1,1′-biphenyl]-4-yl)-4,5-dihydro-1H-pyrazol-1-yl)butanoic acid], the inhibition at 2 µM (2 μM) stood at 15.8 ± 1.1%. The inhibition at 10 µM (10 μM) came to 91.9 ± 1.5%. Further, the inhibition at 50 µM (50 μM) came to 97.9%.

In the case of `O=C(O)CCC(=O)N1N=C(c2ccc(-c3ccc(Cl)c(Cl)c3)cc2)CC1c1ccc2nccnc2c1` (stereo not drawn) [Compound 27, 4-(3-(3′,4′-Dichloro-[1,1′-biphenyl]-4-yl)-5-(quinoxalin-6-yl)-4,5-dihydro-1H-pyrazol-1-yl)-4-oxobutanoic acid], for the setting “10 μM”, the inhibition at 10 µM is 48.3 ± 7.5%. Besides, the inhibition at 50 µM (50 μM) is 92.1 ± 1.1%.

In the case of `CC(C)Oc1ccc(-c2ccc(C3=NN(C(=O)CCC(=O)NS(=O)(=O)C(C)C)C(c4ccc5nccnc5c4)C3)cc2)cc1` (stereo not drawn) [Compound 120, 4-(3-(4′-Isopropoxy-[1,1′-biphenyl]-4-yl)-5-(quinoxalin-6-yl)-4,5-dihydro-1H-pyrazol-1-yl)-N-(isopropylsulfonyl)-4-oxobutanamide], for the setting “2 μM”, the inhibition at 2 µM came out at 12.6 ± 1.4%. In addition, under “10 μM”, the inhibition at 10 µM was determined as 70.4 ± 5.5%.

Turning to `O=C(O)CCC(=O)N1N=C(c2ccc(-c3ccc4c(c3)OC(F)(F)O4)cc2)CC1c1ccc2nccnc2c1` (stereo not drawn) [Compound 104, 4-(3-(4-(2,2-Difluorobenzo[d][1,3]dioxol-5-yl)phenyl)-5-(quinoxalin-6-yl)-4,5-dihydro-1H-pyrazol-1-yl)-4-oxobutanoic acid], where the note is “10 μM”, the inhibition at 10 µM was 41.9 ± 8.9%.

Take `CN(C)S(=O)(=O)NC(=O)CCC(=O)N1N=C(c2cccc(-c3ccccc3)c2)CC1c1ccc2nccnc2c1` (stereo not drawn) [Compound 127, 4-(3-([1,1′-Biphenyl]-3-yl)-5-(quinoxalin-6-yl)-4,5-dihydro-1H-pyrazol-1-yl)-N—(N,N-dimethylsulfamoyl)-4-oxobutanamide]: the inhibition at 2 µM (2 μM) turned out to be 16.8 ± 0.7%. For the same molecule, the inhibition at 10 µM (10 μM) came out at 84.1 ± 3%.

With `O=C(O)CCC(=O)N1N=C(c2ccc(Cl)cc2)CC1c1ccc2c(c1)OC(F)(F)O2` (stereo not drawn) [Compound 38, 4-(3-(4-Chlorophenyl)-5-(2,2-difluorobenzo[d][1,3]dioxol-5-yl)-4,5-dihydro-1H-pyrazol-1-yl)-4-oxobutanoic acid], the inhibition at 10 µM (10 μM) was determined as 55.8 ± 1.8%. Moreover, under “50 μM”, the inhibition at 50 µM is 93.4 ± 0.5%.

Regarding `O=C(O)CCC(=O)N1N=C(c2cccc(-c3cccc(OC(F)(F)F)c3)c2)CC1c1ccc2nccnc2c1` (stereo not drawn) [Compound 98, 4-Oxo-4-(5-(quinoxalin-6-yl)-3-(3′-(trifluoromethoxy)-[1,1′-biphenyl]-3-yl)-4,5-dihydro-1H-pyrazol-1-yl)butanoic acid], the inhibition at 10 µM (10 μM) stood at 15.6 ± 0.6%. Further, the inhibition at 50 µM (50 μM) was determined as 91 ± 2.7%.

`O=C(O)CCC(=O)N1N=C(c2ccc(Cl)cc2)CC1c1ccc2nsnc2c1` (stereo not drawn) [Compound 36, 4-(5-(Benzo[c][1,2,5]thiadiazol-5-yl)-3-(4-chlorophenyl)-4,5-dihydro-1H-pyrazol-1-yl)-4-oxobutanoic acid]: the inhibition at 10 µM (10 μM) was found to be 33.4 ± 2.3%. Further, the inhibition at 50 µM (50 μM) came to 91.3 ± 0.2%.

Turning to `O=C(O)CCC(=O)N1N=C(c2ccc(Cl)cc2)CC1c1ccc2cccnc2c1` (stereo not drawn) [Compound 34, 4-(3-(4-Chlorophenyl)-5-(quinolin-7-yl)-4,5-dihydro-1H-pyrazol-1-yl)-4-oxobutanoic acid], the inhibition at 50 µM (50 μM) stood at 22 ± 2.1%.

Consider `O=C(O)CCC(=O)N1N=C(c2ccc(-c3ccccc3)c(F)c2)CC1c1ccc2nccnc2c1` (stereo not drawn) [Compound 110, 4-(3-(2-Fluoro-[1,1′-biphenyl]-4-yl)-5-(quinoxalin-6-yl)-4,5-dihydro-1H-pyrazol-1-yl)-4-oxobutanoic acid], for which the inhibition at 10 µM (10 μM) was determined as 40.4 ± 7.6%.

On to `O=C(O)CCC(=O)N1N=C2c3cccc(-c4ccccc4)c3CCC2C1c1ccc2nccnc2c1` (stereo not drawn) [Compound 129, 4-Oxo-4-(6-phenyl-3-(quinoxalin-6-yl)-3,3a,4,5-tetrahydro-2H-benzo[g]indazol-2-yl)butanoic acid], for which the inhibition at 10 µM (10 μM) is 42.5 ± 15.8%.
